The values below come from patent US20260365653A1, “IRREVERSIBLE MUTEGFR INHIBITORS” (Bayer Aktiengesellschaft, priority 2022, published 2026).

The target of test [1] is T1, mutEGFR (D770_N771insNPG, T790) (Homo sapiens, UniProt P00533, INS770NPG/T790M).
T1 construct: exact insNPG construct not described; in-house EGFR proteins were N-terminal GST fusions from baculovirus/insect cells (borders R669-A1210 given only for WT, insSVD, insASV)
Put plainly: mutEGFR (D770_N771insNPG, T790) kinase assay. Conditions: Table 2a, D770_N771insNPG. In kind it is biochemical. An excerpt:
The different EGFR proteins used in the biochemical kinase activity inhibition assays were generated inhouse by expression in insect cells using Baculo Virus system and subsequent purification as described in the following paragraphs.
The cDNAs encoding the various protein sequences from human EGFR human (P00533) were optimized for expression in eukaryotic cells and synthesized by the GeneArt Technology at Life Technologies.

In test [2] the target is T2, mutEGFR (D770_N771insSVD) (Homo sapiens, UniProt P00533, DUP768-770).
T2 construct: GST-EGFR #3 (SVD between D770 and N771); made in house; host or cells: Sf9 insect cells (baculovirus)
Briefly: Exon20-Mutant-EGFR (D770_N771insSVD) kinase assay (TR-FRET). The test is classed as biochemical. The note with it: mutEGFR (D770_N771insSVD) kinase assay IC50, Table 2a; D770_N771insSVD; 2 mM ATP. For orientation: Time-resolved FRET reads energy transfer from a long-lived donor to a nearby acceptor.

The next test has as its system BA/F3 (insSVD) cells. Briefly: Ba/F3-EGFR-insSVD cell survival assay (Cell Titer-Glo). In kind it is cell-based. Conditions: Mus musculus, BaF3, 48 h, Table 3a, cell survival, Cell Titer-Glo, with 10 ng/ml EGF, without IL-3. The method, boiled down:
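CellTiter-Glo luminescence read after 48 h compound exposure at 37° C. Cells: IL-3-independent Ba/F3 lines transduced with EGFR-insSVD or EGFR-insSVD T790M, maintained on 10 ng/ml EGF and seeded at 4000 per well.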
A general note: Cellular ATP, detected with luciferase, serves as a proxy for viable cell number.

Structures are written as SMILES.

T2 sequence (P00533 with tags, fused parts or gaps DUP768-770): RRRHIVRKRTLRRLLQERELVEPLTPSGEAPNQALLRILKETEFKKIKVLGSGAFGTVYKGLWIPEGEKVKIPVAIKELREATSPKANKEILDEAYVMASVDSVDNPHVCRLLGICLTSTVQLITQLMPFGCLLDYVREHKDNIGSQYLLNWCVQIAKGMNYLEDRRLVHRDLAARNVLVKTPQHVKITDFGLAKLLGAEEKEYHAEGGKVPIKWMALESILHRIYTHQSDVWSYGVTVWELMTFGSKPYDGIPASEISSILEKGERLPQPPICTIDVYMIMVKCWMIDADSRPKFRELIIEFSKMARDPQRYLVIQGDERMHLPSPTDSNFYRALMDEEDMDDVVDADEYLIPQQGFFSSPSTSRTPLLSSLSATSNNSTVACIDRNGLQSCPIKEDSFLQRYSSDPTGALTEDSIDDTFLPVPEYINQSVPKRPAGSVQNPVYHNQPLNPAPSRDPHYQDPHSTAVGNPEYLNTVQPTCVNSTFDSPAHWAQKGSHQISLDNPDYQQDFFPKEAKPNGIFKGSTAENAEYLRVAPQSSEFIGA
T1 sequence (P00533 with tags, fused parts or gaps INS770NPG/T790M limits assumed): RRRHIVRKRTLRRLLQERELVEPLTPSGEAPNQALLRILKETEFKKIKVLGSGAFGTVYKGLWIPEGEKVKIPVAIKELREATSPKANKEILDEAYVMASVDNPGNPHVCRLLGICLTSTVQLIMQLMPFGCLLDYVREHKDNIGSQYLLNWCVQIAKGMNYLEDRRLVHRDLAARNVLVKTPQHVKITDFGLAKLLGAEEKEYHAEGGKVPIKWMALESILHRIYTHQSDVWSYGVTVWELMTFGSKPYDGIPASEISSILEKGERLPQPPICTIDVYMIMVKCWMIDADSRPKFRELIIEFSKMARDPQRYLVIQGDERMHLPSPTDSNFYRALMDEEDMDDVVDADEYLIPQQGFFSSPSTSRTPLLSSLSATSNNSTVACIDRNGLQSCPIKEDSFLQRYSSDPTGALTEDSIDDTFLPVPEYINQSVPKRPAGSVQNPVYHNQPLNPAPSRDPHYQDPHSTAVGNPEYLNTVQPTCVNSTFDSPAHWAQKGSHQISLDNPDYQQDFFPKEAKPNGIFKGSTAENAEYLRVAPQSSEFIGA

As for `CN(C)C/C=C/C(=O)N1Cc2c(-c3ccncc3)c(-c3ccc(F)cc3)nn2C(CC(=O)N(C)C)C1` (racemic) [Example 222, 2-[(7RS)-5-[(2E)-4-(dimethylamino)but-2-enoyl]-2-(4-fluorophenyl)-3-(pyridin-4-yl)-4,5,6,7-tetrahydropyrazolo[1,5-a]pyrazin-7-yl]-N,N-dimethylacetamide], the values for the IC50 (in test [1]; in test [2]; with BA/F3 (insSVD) cells) were 13 nM, 3.76 nM and 658 nM, respectively.
In the case of `CN(C)CC#CC(=O)N1CCn2nc(-c3ccc(Cl)cc3F)c(-c3ccncc3)c2C1` [Example 72, 1-[2-(4-chloro-2-fluorophenyl)-3-(pyridin-4-yl)-6,7-dihydropyrazolo[1,5-a]pyrazin-5(4H)-yl]-4-(dimethylamino)but-2-yn-1-one], the IC50 in test [1] worked out at 0.3 nM; in test [2], 0.211 nM; in the test with BA/F3 (insSVD) cells, 17.9 nM.
The corresponding values for `Cc1c[nH]c2nccc(-c3c(-c4cccc5ccoc45)nn4c3CN(C(=O)/C=C/CN(C)C)CC4)c12` [Example 186, (2E)-1-[2-(1-benzofuran-7-yl)-3-(3-methyl-1H-pyrrolo[2,3-b]pyridin-4-yl)-6,7-dihydropyrazolo[1,5-a]pyrazin-5(4H)-yl]-4-(dimethylamino)but-2-en-1-one formic acid (1:1)] are 129 nM, 210 nM and 557 nM.
With `C=CC(=O)N1Cc2c(-c3ccnc4[nH]cc(C)c34)c(-c3ccc(F)cc3)nn2C[C@@H]1C` [Example 251, 1-[(6S)-2-(4-fluorophenyl)-6-methyl-3-(3-methyl-1H-pyrrolo[2,3-b]pyridin-4-yl)-6,7-dihydropyrazolo[1,5-a]pyrazin-5(4H)-yl]prop-2-en-1-one], the IC50 amounted to 7.23 nM in test [1], 40.9 nM in test [2] and 24.3 nM in the test on BA/F3 (insSVD) cells.
Take `CC(C)N(C)C/C=C/C(=O)N1CCn2nc(-c3ccc(Cl)cc3)c(-c3ccncc3)c2C1` [Example 166, (2E)-1-[2-(4-chlorophenyl)-3-(pyridin-4-yl)-6,7-dihydropyrazolo[1,5-a]pyrazin-5(4H)-yl]-4-[isopropyl(methyl)amino]but-2-en-1-one]: the IC50 in test [1] was 0.338 nM; in test [2], 0.169 nM; with BA/F3 (insSVD) cells, 78.1 nM.
In the same order, the values of `COC1CCN(C/C=C/C(=O)N2CCn3nc(-c4ccc(Cl)cc4)c(-c4ccncc4)c3C2)CC1` [Example 168, (2E)-1-[2-(4-chlorophenyl)-3-(pyridin-4-yl)-6,7-dihydropyrazolo[1,5-a]pyrazin-5(4H)-yl]-4-(4-methoxypiperidin-1-yl) but-2-en-1-one] are 0.692 nM, 0.245 nM and 63.7 nM.
For the molecule `C=CC(=O)N1CCn2nc(-c3ccc(OC)cc3)c(-c3ccnc4[nH]cc(C)c34)c2C1` [Example 47, 1-[2-(4-methoxyphenyl)-3-(3-methyl-1H-pyrrolo[2,3-b]pyridin-4-yl)-6,7-dihydropyrazolo[1,5-a]pyrazin-5(4H)-yl]prop-2-en-1-one], the figures for the IC50 (in test [1]; in test [2]; in the test with BA/F3 (insSVD) cells) were 666 nM, 864 nM and 231 nM, respectively.
In the same order, the values of `C=CC(=O)N1Cc2c(-c3ccncc3)c(-c3ccc(Cl)c(C)c3)nn2C(C)(C)C1` [Example 208, 1-[2-(4-chloro-3-methylphenyl)-7,7-dimethyl-3-(pyridin-4-yl)-6,7-dihydropyrazolo[1,5-a]pyrazin-5(4H)-yl]prop-2-en-1-one] are 0.365 nM, 0.14 nM and 15.8 nM.
Turning to `C=CC(=O)N1CCn2nc(-c3ccc(C(F)(F)F)nc3)c(-c3ccncc3)c2C1` [Example 188, 1-[3-(pyridin-4-yl)-2-[6-(trifluoromethyl)pyridin-3-yl]-6,7-dihydropyrazolo[1,5-a]pyrazin-5(4H)-yl]prop-2-en-1-one], the figures for the IC50 (in test [1]; in test [2]; with BA/F3 (insSVD) cells) were 11.2 nM, 155 nM and 149 nM, respectively.
In the same order, the values of `CO[C@H]1CCN(C/C=C/C(=O)N2CCn3nc(-c4ccc(F)cc4)c(-c4ccncc4)c3C2)C1` [Example 83, (2E)-1-[2-(4-fluorophenyl)-3-(pyridin-4-yl)-6,7-dihydropyrazolo[1,5-a]pyrazin-5(4H)-yl]-4-[(3S)-3-methoxypyrrolidin-1-yl]but-2-en-1-one] are 3.53 nM, 0.976 nM and 132 nM.
On to `C=CC(=O)N1CCn2nc(-c3ccc(OC)c(F)c3)c(-c3ccncc3)c2C1` [Example 42, 1-[2-(3-fluoro-4-methoxyphenyl)-3-(pyridin-4-yl)-6,7-dihydropyrazolo[1,5-a]pyrazin-5(4H)-yl]prop-2-en-1-one], for which the IC50 turned out to be 6.31 nM in test [1], 1.01 nM in test [2] and 53.6 nM in the test on BA/F3 (insSVD) cells.
As for `C=CC(=O)N1Cc2c(-c3ccncc3)c(-c3ccc(Cl)cc3F)nn2C(C)C1` (single isomer, unassigned; isomer 1) [Example 282, 1-[2-(4-chloro-2-fluorophenyl)-7-methyl-3-(pyridin-4-yl)-6,7-dihydropyrazolo[1,5-a]pyrazin-5(4H)-yl]prop-2-en-1-one (isomer 1)], the IC50 turned out to be 0.282 nM in test [1], 0.117 nM in test [2] and 6.15 nM in the test with BA/F3 (insSVD) cells.
Take `C=CC(=O)N1CCn2nc(-c3ccc4cc[nH]c4c3F)c(-c3ccncc3)c2C1` [Example 114]: the IC50 amounted to 0.218 nM in test [1], 0.144 nM in test [2] and 13.7 nM in the test on BA/F3 (insSVD) cells.
As for `C=CC(=O)N1CCn2nc(-c3ccc(Cl)cc3C)c(-c3ccncc3)c2C1` [Example 117, 1-[2-(4-chloro-2-methylphenyl)-3-(pyridin-4-yl)-6,7-dihydropyrazolo[1,5-a]pyrazin-5(4H)-yl]prop-2-en-1-one], the results for the IC50 (in test [1]; in test [2]; in the test with BA/F3 (insSVD) cells) were 1.86 nM, 0.384 nM and 54.5 nM, respectively.
As to `C=CC(=O)N1CCn2nc(-c3cccc(C#N)c3F)c(-c3ccncc3)c2C1` [Example 120, 2-fluoro-3-[5-(prop-2-enoyl)-3-(pyridin-4-yl)-4,5,6,7-tetrahydropyrazolo[1,5-a]pyrazin-2-yl]benzonitrile], the values for the IC50 (in test [1]; in test [2]; with BA/F3 (insSVD) cells) were 50.3 nM, 50.5 nM and 933 nM, respectively.
On to `C=CC(=O)N1CCn2nc(-c3ccc(OC)cc3F)c(-c3ccncc3)c2C1` [Example 142, 1-[2-(2-fluoro-4-methoxyphenyl)-3-(pyridin-4-yl)-6,7-dihydropyrazolo[1,5-a]pyrazin-5(4H)-yl]prop-2-en-1-one], for which the IC50 in test [1] was determined as 2.83 nM; in test [2] it was 0.739 nM; in the test on BA/F3 (insSVD) cells it was 53 nM.
The corresponding values for `Cc1cccc(-c2nn3c(c2-c2ccncc2)CN(C(=O)/C=C/CN(C)C)CC3)c1` [Example 157, (2E)-4-(dimethylamino)-1-[2-(3-methylphenyl)-3-(pyridin-4-yl)-6,7-dihydropyrazolo[1,5-a]pyrazin-5(4H)-yl]but-2-en-1-one] are 1.77 nM, 1 nM and 117 nM.
In the case of `C=CC(=O)N1Cc2c(-c3ccncc3)c(-c3ccc(OC)cc3)nn2CC1C` (racemic) [Example 228, 1-[(6RS)-2-(4-methoxyphenyl)-6-methyl-3-(pyridin-4-yl)-6,7-dihydropyrazolo[1,5-a]pyrazin-5(4H)-yl]prop-2-en-1-one], the IC50 in test [1] was 2.2 nM; in test [2], 0.724 nM; in the test on BA/F3 (insSVD) cells it was 44.6 nM.

Usually IC50 stands for the midpoint of a concentration-inhibition curve. Lower therefore signals inhibition by little substance.
